Numbers after ± are expanded uncertainties.

Data set [1] in a line: Molar enthalpy of transition or fusion. Particulars: Crystal; DSC.
The conditions of data set [2]: Crystal; DTA.

As for `NC(=O)C[C@H](N)C(=O)O` [L-asparagine], the “Molar enthalpy of transition or fusion” value in data set [1] was found to be 26.9 ± 1.53 kcal/mol. Further, the Normal melting temperature in data set [2] came to 210.20 ± 3.2 °C.

Consider `NC(=O)CC[C@H](N)C(=O)O` [L-glutamine], for which, in data set [1], the “Molar enthalpy of transition or fusion” value is 6.93 ± 0.884 kcal/mol. For the same compound, the Normal melting temperature in data set [2] turned out to be 182.20 ± 3.4 °C.

The values above are taken from the NIST ThermoML archive (doi:10.1016/j.tca.2009.08.017).
